Measured values reported in publication PMC3693459 (Nuclear medicine and biology, 2009).

How the values were obtained:
aromatase [1] = conditions: cited from earlier work
Measurement of log D = conditions: 1-octanol / phosphate buffered saline pH 7.4
[2] = Measurement of free fraction in plasma; conditions: baboon plasma, room temperature, 10 min incubation
aromatase [3] = test: PET studies in baboon brain; conditions: for brain penetration / uptake in amygdala and preoptic area (PET images): baboon brain; for brain penetration: at 2.5 min; for uptake in amygdala and preoptic area (PET images): images summed 15-90 min after injection
[4] = for appearance of labeled metabolites in plasma: compared with N-1 (11C-1)

**Q.** Which “activity of enantiomer at aromatase” value (aromatase [1]) does the source give for `Cn1nnc2ccc([C@@H](c3ccc(Cl)cc3)n3cncn3)cc21` [(R)-vorozole] here?
**A.** inactive

**Q.** For `[11CH3]n1nc2ccc([C@H](c3ccc(Cl)cc3)n3cncn3)cc2n1` [^11C-2], which “Log D at pH 7.4 (n=4)” value (Measurement of log D) is on record?
**A.** 2.9

**Q.** And the “Percent unbound in plasma (n=2)” value [2]?
**A.** 4.6%

**Q.** What about the brain penetration (aromatase [3]) of the same compound?
**A.** 0.02-0.03 %ID/cc

**Q.** And the “uptake in amygdala and preoptic area (PET images)” value (aromatase [3])?
**A.** no specific uptake in amygdala and preoptic area

**Q.** What about the “disappearance of the parent labeled compound from plasma” value ([4]; baboon plasma) of the same compound?
**A.** rapid rate of disappearance

**Q.** What about the “appearance of labeled metabolites in plasma” value ([4]; baboon plasma) of the same compound?
**A.** very rapid appearance of labeled metabolites

**Q.** With `[11CH3]n1nnc2cc(C(c3ccc(Cl)cc3)n3cncn3)ccc21` (centres unmarked) [^11C-3] as the compound, how does the “Log D at pH 7.4 (n=4)” value (Measurement of log D) read?
**A.** 2.5

**Q.** And the “Percent unbound in plasma (n=2)” value [2]?
**A.** 8.1%

**Q.** What about the brain penetration (aromatase [3]) of the same compound?
**A.** 0.02-0.03 %ID/cc

**Q.** What about the “uptake in amygdala and preoptic area (PET images)” value (aromatase [3]) of the same compound?
**A.** no specific uptake in amygdala and preoptic area

**Q.** And the “appearance of labeled metabolites in plasma” value ([4]; baboon plasma)?
**A.** very rapid appearance of labeled metabolites

**Q.** And the “area under curve (AUC) in plasma normalized to the injected dose” value ([4]; baboon, over 90 minutes)?
**A.** similar

**Q.** With `N#Cc1ccc(C(c2ccc(C#N)cc2)n2cncn2)cc1` [letrozole, reference compound] as the compound, how does the “effect of pretreatment on [N-methyl-11C]vorozole (11C-1) accumulation in brain” value (aromatase [3]; baboon, blocking dose 0.1 mg/kg, 5 min prior, all brain regions examined) read?
**A.** reduced
